The text below walks through data of patent US6673781B1, “Tricyclic compounds having sPLA2-inhibitory activities” (Shionogi & Co., Ltd., priority 1999, dated 2004).

For series [1], the target named is T1, recombinant human secretory phospholipase A2 (Homo sapiens, UniProt P14555).
T1 sequence (P14555 21-144): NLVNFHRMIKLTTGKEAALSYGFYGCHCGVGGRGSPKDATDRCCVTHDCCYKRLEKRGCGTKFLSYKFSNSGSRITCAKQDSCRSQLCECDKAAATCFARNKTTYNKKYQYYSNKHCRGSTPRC
As to the kind of experiment: Inhibition test of human secretory phospholipase A2 (chromogenic assay, 96 well microtiterplate). Type of series: biochemical. The following applies: sPLA2 50 ng/well, 40° C., 30 minutes, OD 405 nm, substrate 1,2-bis(heptanoylthio)-1,2-dideoxy-sn-glycero-3-phospholylcholine. The source says:
Inhibition Test of Human Secretory Phospholipase A2 Analytical Experiment
In order to identify and evaluate an inhibitor of recombinant human secretory phospholipase A2, the following chromogenic assay is utilized. The assay herein has been applied for high volume screening wherein 96 well microtiterplate is used. A general explanation for such assay is described in “Analysis of Human Synovial Fluid Phospholipase A2 on Short Chain Phosphatidylcholine-Mixed Micelles: Development of a Spectrophotometric Assay Suitable for a Micortiterplate Reader” (Analytical Biochemistry, 204, pp 190-197, 1992 by Laure. J. Reynolds. Lori L. Hughes and Edward A. Dennis: the disclosure of which is incorporated herein for reference.
Bovine Serum Albumin (fatty acid free) (1 g/L) (Sigma A-7030)
pH 7.5 (adjusted with NaOH)
pH 4.5 (adjusted with acetic acid)
1 mg of sPLA2 is dissolved in 1 ml of an enzyme buffer. Thereafter, the solution is maintained at 4° C.
In the assay, 5 μl of the solution is diluted with 1995 μl of the reaction buffer to be used.
198 mg of 5,5′-dithiobis-2-[…] (manufactured by Wako Pure Chemicals) is dissolved in 100 ml of H2O
100 mg of racemic 1,2-bis(heptanoylthio)-1,2-dideoxy-sn-glycero-3-phospholylcholine is dissolved in 1 ml of chloroform.
624.9 mg of Triton-X 100 is dissolved in 100 ml of the reaction buffer.
Enzyme Reaction: for 1 plate of Microtiterplate
1) 0.106 ml of the substrate solution is put in a centrifugal tube, and nitrogen gas is jetted to remove the solvent. 0.54 ml of Triton-X 100 is added thereto, the mixture is stirred, thereafter it is sonified in a bath type sonification to dissolve. To the resulting product are added 17.8 ml of the reaction buffer and 0.46 ml of DTNB, and 0.18 ml each of the admixture is poured to wells of the 96 well microtiterplate.
2) 10 μl of a test compound (or solvent blank) are added in accordance with alignment of plates which has been previously set.
3) Incubation is effected at 40° C. for 15 minutes.
4) 20 μl of an enzyme solution (sPLA2) which has been previously diluted (50 ng/well) are added to start reaction (40° C., 30 minutes).
5) Changes in absorbancy for 30 minutes are measured by a plate reader, and inhibition activity was calculated (OD: 405 nm).
6) IC50 was determined by plotting log concentration with respect to inhibition values within 10% to 90% inhibiting range.

A word on the IC50: it is the concentration needed to halve the response being measured. In the case of `NC(=O)C1=CCCc2c1c1c(OCC(=O)O)cccn1c2Cc1ccccc1` [Compound I-2], the IC50 in series [1] turned out to be 0.008 µM. In the case of `NC(=O)C1CCCc2c1c1c(OCC(=O)O)cccn1c2Cc1ccccc1` (stereo not drawn) [Compound I-3], in series [1], the IC50 worked out at 0.021 µM.

Consider `CCOC(=O)CCCOc1ccn2c(Cc3ccccc3)c3c(c2c1)C(C(N)=O)=CCC3` [Compound I-4], for which the IC50 in series [1] was found to be 0.175 µM. In the case of `NC(=O)C1=CCCc2c1c1cc(OCCCC(=O)O)ccn1c2Cc1ccccc1` [Compound I-5], in series [1], the IC50 was 0.049 µM.

As usually defined, the melting point is the temperature, or range, at which the solid turns liquid. For `COC(=O)COc1cccn2c(Cc3ccccc3)c3c(c12)C(C(N)=O)OCCC3` (stereo not drawn) [Compound I-6], the melting point was in the range of 182 to 183 °C. Besides, the IC50 in series [1] turned out to be 7.5 µM.

`NC(=O)C1OCCCc2c1c1c(OCC(=O)O)cccn1c2Cc1ccccc1` (stereo not drawn) [Compound I-7] registered a melting point of 175 to 179 °C. For the same molecule, in series [1], the IC50 turned out to be 0.269 µM. In the case of `COC(=O)COc1cccn2c(Cc3ccccc3)c3c(c12)C(C(N)=O)=NCC3` [Compound I-8], in series [1], the IC50 stood at 21.1 µM. `NC(=O)C1=NCCc2c1c1c(OCC(=O)O)cccn1c2Cc1ccccc1` [Compound I-9] yielded a melting point of 196 to 198 °C. In series [1], the IC50 is 1.59 µM. As to `NC(=O)c1nncc2c(Cc3ccccc3)n3cccc(OCC(=O)O)c3c12` [Compound I-10], the IC50 in series [1] was determined as 39.9 µM. For the molecule `NC(=O)C1=NOCc2c1c1c(OCC(=O)O)cccn1c2Cc1ccccc1` [Compound I-11], the IC50 in series [1] stood at 0.031 µM. As to `COC(=O)COc1cccn2c(Cc3ccc(-c4ccccc4)cc3)c3c(c12)C(C(N)=O)=CCC3` [Compound I-12], the melting point was 196 to 198 °C. In series [1], the IC50 stood at 0.125 µM. `NC(=O)C1=CCCc2c1c1c(OCC(=O)O)cccn1c2Cc1ccc(-c2ccccc2)cc1` [Compound I-13] showed a melting point of 224 to 227 °C. Moreover, the IC50 in series [1] is 0.01 µM. Turning to `COC(=O)COc1cccn2c(Cc3ccccc3)c3c(c12)C(C(N)=O)OCC3` (stereo not drawn) [Compound I-14], the melting point is 218 to 220 °C. The IC50 in series [1] turned out to be 0.725 µM.

With `NC(=O)C1OCCc2c1c1c(OCC(=O)O)cccn1c2Cc1ccccc1` (stereo not drawn) [Compound I-15], the melting point was 242 to 243 °C (dec.). In addition, the IC50 in series [1] came to 0.035 µM.
